Source: ChEMBL document CHEMBL5257053, “Discovery of Orally Bioavailable FGFR2/FGFR3 Dual Inhibitors via Structure-Guided Scaffold Repurposing Approach” (ACS Med Chem Lett, 2023)
In brackets after ≈: the same amount, converted by molar mass.

Legend:
[1] = Oral bioavailability in Sprague-Dawley rat at 3 mg/kg measured up to 24 hrs; format: ADME, organism-based; conditions: in vivo
[2] = Half life in Sprague-Dawley rat at 3 mg/kg, po or 1 mg/kg, iv measured up to 24 hrs; format: ADME, organism-based; conditions: in vivo
[3] = molecular target: T1, Fibroblast growth factor receptor 2 (Homo sapiens, UniProt P21802); test: Inhibition of recombinant human FGFR2 (400 to 821 residues) using biotin-EQEDEPEGDYFEWLE-amide as substrate preincubated for 5 to 10 mins followed by substrate addition and measured after 1 hr in presence of ATP by HTRF assay
T1 sequence (P21802 whole entry, the tested form may be a part): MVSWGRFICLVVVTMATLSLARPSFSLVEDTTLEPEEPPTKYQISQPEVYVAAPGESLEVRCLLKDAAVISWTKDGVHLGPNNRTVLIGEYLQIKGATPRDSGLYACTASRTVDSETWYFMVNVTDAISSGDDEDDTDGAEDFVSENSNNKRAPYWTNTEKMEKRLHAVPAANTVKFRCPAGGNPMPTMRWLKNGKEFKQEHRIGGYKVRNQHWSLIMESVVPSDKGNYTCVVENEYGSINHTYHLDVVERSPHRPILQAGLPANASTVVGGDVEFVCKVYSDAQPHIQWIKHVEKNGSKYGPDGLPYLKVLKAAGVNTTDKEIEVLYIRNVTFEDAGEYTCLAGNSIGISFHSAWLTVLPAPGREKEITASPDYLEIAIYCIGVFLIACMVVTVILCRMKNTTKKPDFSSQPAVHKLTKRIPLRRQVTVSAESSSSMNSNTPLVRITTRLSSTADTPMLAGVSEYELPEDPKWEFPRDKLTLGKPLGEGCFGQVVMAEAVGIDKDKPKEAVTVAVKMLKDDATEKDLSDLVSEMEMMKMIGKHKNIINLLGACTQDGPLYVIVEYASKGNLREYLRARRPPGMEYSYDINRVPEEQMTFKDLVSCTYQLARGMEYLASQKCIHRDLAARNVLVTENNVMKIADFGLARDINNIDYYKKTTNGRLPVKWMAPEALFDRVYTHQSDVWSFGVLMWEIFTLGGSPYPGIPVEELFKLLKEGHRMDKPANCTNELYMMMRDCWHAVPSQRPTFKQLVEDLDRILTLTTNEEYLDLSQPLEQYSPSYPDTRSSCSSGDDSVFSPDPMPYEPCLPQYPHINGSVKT

[4] = Half life in cynomolgus monkey at 3 mg/kg, po or 1 mg/kg, iv measured up to 24 hrs; format: ADME, organism-based, Macaca fascicularis; conditions: in vivo
[5] = Cmax in Sprague-Dawley rat at 3 mg/kg, po measured up to 24 hrs; format: ADME, organism-based; parameters: dose 3 mg/kg, time < 24 hrs, route po; conditions: in vivo
[6] = Metabolic stability in human liver microsomes assessed as intrinsic clearance at 1 uM preincubated for 2 mins followed by NADPH addition and measured upto 30 mins by LC-MS/MS analysis; format: ADME, Microsome; conditions: time < 32 min, read-out: CLH (converted)
[7] = Clearance in cynomolgus monkey at 3 mg/kg, po or 1 mg/kg, iv measured up to 24 hrs; format: ADME, organism-based, Macaca fascicularis; conditions: in vivo
[8] = Cmax in cynomolgus monkey at 3 mg/kg, po measured up to 24 hrs; format: ADME, organism-based, Macaca fascicularis; parameters: time < 24 hrs, dose 3 mg/kg, route po; conditions: in vivo
[9] = molecular target: hERG (KCNH2) (Homo sapiens, UniProt Q12809); test: Inhibition of human ERG at 10 uM relative to control; format: toxicity
[10] = molecular target: Fibroblast growth factor receptor 3 (Mus musculus, UniProt Q61851); test: Inhibition of FGFR3 phosphorylation in mouse BaF3 cells incubated for 2 hrs; format: cell-based
Fibroblast growth factor receptor 3, sequence (Q61851 whole entry): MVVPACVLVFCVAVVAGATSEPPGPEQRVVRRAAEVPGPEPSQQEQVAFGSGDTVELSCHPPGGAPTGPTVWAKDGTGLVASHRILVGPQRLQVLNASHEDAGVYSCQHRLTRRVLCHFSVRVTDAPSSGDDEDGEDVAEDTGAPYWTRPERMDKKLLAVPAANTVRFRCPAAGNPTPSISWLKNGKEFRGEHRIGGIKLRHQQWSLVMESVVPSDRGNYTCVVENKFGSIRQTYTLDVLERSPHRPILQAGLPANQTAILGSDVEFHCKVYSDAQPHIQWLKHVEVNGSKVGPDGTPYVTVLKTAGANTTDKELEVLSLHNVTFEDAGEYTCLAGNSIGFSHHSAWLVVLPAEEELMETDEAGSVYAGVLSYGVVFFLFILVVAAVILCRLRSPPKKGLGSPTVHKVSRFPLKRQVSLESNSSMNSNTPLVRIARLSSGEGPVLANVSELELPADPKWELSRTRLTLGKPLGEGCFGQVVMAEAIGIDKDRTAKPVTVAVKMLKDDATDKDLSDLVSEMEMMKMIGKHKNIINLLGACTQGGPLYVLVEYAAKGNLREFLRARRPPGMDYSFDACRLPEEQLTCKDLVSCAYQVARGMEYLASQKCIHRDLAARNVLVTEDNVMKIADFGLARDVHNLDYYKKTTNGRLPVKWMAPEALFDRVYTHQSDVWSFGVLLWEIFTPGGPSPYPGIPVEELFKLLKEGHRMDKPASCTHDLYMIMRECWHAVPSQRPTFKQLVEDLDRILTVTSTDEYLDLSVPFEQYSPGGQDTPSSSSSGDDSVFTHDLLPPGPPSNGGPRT

[11] = Volume of distribution at steady state in cynomolgus monkey at 3 mg/kg, po or 1 mg/kg, iv measured up to 24 hrs; format: ADME, organism-based, Macaca fascicularis; conditions: in vivo
[12] = Clearance in Sprague-Dawley rat at 3 mg/kg, po or 1 mg/kg, iv measured up to 24 hrs; format: ADME, organism-based; conditions: in vivo
[13] = molecular target: Cytochrome P450 2C9 (Homo sapiens, UniProt P11712); test: Inhibition of CYP2C9 (unknown origin); format: ADME
Cytochrome P450 2C9, sequence (P11712 whole entry): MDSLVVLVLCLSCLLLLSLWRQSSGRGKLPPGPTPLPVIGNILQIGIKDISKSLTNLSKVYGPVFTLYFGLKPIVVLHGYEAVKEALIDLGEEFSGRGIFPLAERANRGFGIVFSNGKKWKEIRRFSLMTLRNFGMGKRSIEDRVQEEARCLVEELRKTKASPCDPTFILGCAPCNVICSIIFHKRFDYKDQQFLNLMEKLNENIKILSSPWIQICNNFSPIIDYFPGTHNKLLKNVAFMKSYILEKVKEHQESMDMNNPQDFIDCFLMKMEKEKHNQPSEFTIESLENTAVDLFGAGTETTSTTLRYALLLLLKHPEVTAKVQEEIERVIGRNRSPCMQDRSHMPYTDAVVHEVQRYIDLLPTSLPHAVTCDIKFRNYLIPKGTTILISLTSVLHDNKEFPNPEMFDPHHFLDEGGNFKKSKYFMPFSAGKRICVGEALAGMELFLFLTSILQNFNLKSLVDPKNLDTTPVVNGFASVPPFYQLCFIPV

[14] = molecular target: T2, Cytochrome P450 2B6 (Homo sapiens, UniProt P20813); test: Inhibition of CYP2B6 (unknown origin); format: ADME
T2 sequence (P20813 whole entry): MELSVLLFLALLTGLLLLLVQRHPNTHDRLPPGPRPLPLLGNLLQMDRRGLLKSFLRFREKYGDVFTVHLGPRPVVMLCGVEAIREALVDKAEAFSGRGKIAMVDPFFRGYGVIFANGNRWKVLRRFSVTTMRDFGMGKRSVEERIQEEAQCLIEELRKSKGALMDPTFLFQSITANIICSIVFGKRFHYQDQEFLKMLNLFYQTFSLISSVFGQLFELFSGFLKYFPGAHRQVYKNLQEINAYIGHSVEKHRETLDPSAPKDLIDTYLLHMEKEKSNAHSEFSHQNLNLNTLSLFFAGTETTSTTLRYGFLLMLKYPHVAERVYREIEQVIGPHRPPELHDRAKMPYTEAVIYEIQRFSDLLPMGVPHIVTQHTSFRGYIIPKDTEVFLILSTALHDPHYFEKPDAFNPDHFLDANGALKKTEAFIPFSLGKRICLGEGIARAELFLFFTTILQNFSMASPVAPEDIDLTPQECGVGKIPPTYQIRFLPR

[15] = molecular target: Cytochrome P450 2D6 (Homo sapiens, UniProt P10635); test: Inhibition of CYP2D6 (unknown origin); format: ADME
Cytochrome P450 2D6, sequence (P10635 whole entry): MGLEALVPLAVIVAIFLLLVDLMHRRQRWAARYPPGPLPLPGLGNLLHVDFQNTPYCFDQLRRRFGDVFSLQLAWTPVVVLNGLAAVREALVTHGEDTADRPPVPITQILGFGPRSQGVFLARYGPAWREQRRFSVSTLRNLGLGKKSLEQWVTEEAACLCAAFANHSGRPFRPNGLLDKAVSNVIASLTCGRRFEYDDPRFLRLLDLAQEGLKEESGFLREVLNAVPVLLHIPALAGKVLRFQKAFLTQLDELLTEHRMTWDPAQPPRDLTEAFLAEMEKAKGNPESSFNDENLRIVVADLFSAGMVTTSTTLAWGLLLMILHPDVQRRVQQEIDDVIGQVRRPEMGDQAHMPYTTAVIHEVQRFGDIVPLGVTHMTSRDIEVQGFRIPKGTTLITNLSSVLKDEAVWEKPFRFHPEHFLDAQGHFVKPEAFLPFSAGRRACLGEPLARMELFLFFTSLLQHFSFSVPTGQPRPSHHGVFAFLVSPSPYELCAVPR

[16] = AUCinfinity in cynomolgus monkey at 3 mg/kg, po measured up to 24 hrs; format: ADME, organism-based, Macaca fascicularis; parameters: time < 24 hrs, dose 3 mg/kg, route po; conditions: in vivo
[17] = Volume of distribution at steady state in Sprague-Dawley rat at 3 mg/kg, po or 1 mg/kg, iv measured up to 24 hrs; format: ADME, organism-based; conditions: in vivo
[18] = molecular target: T3, Activin receptor type-1 (Homo sapiens, UniProt Q04771); test: Inhibition of recombinant human ALK2 (147 to end residues) expressed in Sf9 infected baculovirus expression system using TRF0130 as substrate incubated for 3 hrs in presence of […]
T3 sequence (Q04771 whole entry): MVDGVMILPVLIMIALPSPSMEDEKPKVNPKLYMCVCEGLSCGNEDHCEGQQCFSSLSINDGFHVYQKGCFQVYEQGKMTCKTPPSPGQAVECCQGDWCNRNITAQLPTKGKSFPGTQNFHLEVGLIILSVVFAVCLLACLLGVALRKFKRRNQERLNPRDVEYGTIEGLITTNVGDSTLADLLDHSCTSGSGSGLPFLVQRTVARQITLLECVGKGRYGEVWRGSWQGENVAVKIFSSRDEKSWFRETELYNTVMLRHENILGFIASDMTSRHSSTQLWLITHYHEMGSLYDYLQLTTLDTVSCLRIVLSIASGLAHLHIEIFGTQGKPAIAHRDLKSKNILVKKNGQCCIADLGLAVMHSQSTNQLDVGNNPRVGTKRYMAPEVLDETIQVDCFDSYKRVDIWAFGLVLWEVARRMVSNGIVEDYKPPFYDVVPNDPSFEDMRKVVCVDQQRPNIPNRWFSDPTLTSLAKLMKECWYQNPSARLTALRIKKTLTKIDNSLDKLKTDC

[19] = Protein binding in human plasma assessed as free fraction after 2 hrs by equilibrium dialysis method; format: ADME, cell-free
[20] = molecular target: T1, Fibroblast growth factor receptor 2; test: Inhibition of FGFR2 in human KATOIII cells incubated for 1 hr; format: cell-based, KATO III stomach cancer cell line
[21] = AUCinfinity in Sprague-Dawley rat at 3 mg/kg, po measured up to 24 hrs; format: ADME, organism-based; parameters: dose 3 mg/kg, time < 24 hrs, route po; conditions: in vivo
[22] = molecular target: Cytochrome P450 3A4 (Homo sapiens, UniProt P08684); test: Inhibition of CYP3A4 (unknown origin); format: ADME
Cytochrome P450 3A4, sequence (P08684 whole entry): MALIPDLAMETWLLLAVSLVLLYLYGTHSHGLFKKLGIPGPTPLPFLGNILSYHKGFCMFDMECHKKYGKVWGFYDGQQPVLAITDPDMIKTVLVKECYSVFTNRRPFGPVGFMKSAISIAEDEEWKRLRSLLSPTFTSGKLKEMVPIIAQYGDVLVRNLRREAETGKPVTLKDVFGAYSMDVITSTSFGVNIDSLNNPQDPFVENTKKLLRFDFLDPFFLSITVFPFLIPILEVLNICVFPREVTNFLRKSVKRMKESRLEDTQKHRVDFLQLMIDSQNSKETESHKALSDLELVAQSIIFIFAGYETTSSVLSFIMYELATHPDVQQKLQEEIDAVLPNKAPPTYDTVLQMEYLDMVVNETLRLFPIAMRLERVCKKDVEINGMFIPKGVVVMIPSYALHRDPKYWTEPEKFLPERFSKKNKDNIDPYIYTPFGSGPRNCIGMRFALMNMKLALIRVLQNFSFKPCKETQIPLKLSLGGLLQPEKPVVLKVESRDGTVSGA

[23] = Drug concentration in NSG mouse plasma at 30 mg/kg, po measured after 2 hrs; format: ADME, organism-based
[24] = Oral bioavailability in cynomolgus monkey at 3 mg/kg measured up to 24 hrs; format: ADME, organism-based, Macaca fascicularis; conditions: in vivo
[25] = molecular target: Vascular endothelial growth factor receptor 2 (Homo sapiens, UniProt P35968); test: Inhibition of KDR (unknown origin) using peptide substrate incubated for 90 mins in presence of ATP by HTRF method
Vascular endothelial growth factor receptor 2, sequence (P35968 whole entry, the tested form may be a part): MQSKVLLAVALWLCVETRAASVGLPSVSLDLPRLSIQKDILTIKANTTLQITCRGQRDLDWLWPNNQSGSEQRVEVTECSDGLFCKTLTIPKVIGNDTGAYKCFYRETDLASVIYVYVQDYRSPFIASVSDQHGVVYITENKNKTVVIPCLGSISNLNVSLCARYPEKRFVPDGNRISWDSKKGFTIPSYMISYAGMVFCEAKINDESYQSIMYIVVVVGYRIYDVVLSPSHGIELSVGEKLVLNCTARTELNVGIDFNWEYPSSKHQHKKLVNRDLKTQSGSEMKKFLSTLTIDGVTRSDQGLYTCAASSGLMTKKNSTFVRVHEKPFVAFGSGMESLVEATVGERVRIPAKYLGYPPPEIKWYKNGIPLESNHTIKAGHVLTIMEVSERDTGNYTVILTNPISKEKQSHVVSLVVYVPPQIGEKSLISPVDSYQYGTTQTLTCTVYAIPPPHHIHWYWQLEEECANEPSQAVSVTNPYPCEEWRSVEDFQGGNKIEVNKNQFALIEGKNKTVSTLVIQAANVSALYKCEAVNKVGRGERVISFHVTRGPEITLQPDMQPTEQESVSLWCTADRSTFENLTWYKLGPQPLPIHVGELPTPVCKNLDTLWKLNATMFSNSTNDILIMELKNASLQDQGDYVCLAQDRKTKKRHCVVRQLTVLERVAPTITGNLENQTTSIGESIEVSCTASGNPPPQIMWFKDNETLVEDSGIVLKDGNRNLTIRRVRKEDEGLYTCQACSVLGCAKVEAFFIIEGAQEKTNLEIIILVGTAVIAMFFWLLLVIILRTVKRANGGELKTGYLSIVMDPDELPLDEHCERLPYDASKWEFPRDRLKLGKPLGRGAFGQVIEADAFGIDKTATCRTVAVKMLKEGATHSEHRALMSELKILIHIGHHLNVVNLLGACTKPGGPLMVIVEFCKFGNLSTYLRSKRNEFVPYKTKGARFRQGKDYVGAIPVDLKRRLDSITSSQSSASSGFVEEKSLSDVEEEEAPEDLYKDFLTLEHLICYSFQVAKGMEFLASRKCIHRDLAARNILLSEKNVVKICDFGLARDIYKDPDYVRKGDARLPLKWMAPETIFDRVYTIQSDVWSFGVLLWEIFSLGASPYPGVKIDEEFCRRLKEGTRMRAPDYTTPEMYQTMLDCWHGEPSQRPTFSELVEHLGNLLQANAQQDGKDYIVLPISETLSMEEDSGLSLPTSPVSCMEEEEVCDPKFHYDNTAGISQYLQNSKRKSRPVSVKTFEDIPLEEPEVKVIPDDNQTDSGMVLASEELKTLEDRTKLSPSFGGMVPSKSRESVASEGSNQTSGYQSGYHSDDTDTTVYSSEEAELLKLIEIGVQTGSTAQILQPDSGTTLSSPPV

[26] = molecular target: Fibroblast growth factor receptor 4 (Homo sapiens, UniProt P22455); test: Inhibition of recombinant human FGFR4 (460 to 802 residues) using biotin-EQEDEPEGDYFEWLE-amide as substrate preincubated for 5 to 10 mins followed by substrate addition and measured after 1 hr in presence of ATP by HTRF assay
[27] = Solubility of compound in stimulated gastric fluid; format: ADME; conditions: simulated gastric fluid
[28] = Solubility of compound in fasted state stimulated intestinal fluid; format: ADME; conditions: fasted state simulated intestinal fluid
[29] = molecular target: T4, Cytochrome P450 1A2 (Homo sapiens, UniProt P05177); test: Inhibition of CYP1A2 (unknown origin); format: ADME
T4 sequence (P05177 whole entry): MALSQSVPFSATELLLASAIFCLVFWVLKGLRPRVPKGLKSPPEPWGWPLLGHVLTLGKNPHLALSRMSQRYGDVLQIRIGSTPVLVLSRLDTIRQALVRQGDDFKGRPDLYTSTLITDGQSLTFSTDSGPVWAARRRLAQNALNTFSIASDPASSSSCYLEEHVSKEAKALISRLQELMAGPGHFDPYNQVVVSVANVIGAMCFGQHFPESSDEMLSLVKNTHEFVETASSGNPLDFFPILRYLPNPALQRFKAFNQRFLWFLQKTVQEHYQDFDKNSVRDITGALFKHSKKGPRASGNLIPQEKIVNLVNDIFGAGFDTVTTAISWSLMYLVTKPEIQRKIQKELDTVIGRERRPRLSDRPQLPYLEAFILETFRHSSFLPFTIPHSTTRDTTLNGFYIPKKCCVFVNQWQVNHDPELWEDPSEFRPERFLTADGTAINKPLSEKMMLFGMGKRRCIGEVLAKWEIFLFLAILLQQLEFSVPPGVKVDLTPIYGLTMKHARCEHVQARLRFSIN

[30] = Permeability in human Caco-2 cells incubated for 120 mins by LC-MS/MS analysis; format: ADME, cell-based; conditions: read-out: permeability

Work on `CN1C[C@@H]2CC[C@H](C1=O)N2c1ncc2[nH]nc(-c3cnn(C4CCC4)c3)c2n1` yielded a bioavailability [1] of 100%, a half-life [2] of 6.6 h and an IC50 [3] of 0.0018 µM. It also gave a half-life [4] of 3.2 h, a Cmax [5] of 5.55 µM and a CLint scaled at 1 µM [6] of 1 L/h/kg. For the same compound, the CL [7] was 0.7 L/h/kg, the Cmax [8] was 0.825 µM and the inhibition at 10 µM [9] was less than 10%. For the same compound, the IC50 [10] was 0.016 µM, the Vdss [11] was 0.66 L/kg and the CL [12] was 1.4 L/h/kg. The IC50 [13] was greater than 10 µM, the IC50 [14] was greater than 10 µM and the IC50 [15] was greater than 10 µM. The AUC(0-inf) [16] was 2.21 µM·h, the Vdss [17] was 2.6 L/kg and the IC50 [18] was 0.477 µM. It also gave a fraction unbound at 2 h [19] of 0.11, an IC50 [20] of 0.024 µM and an AUC(0-inf) [21] of 5.82 µM·h. The IC50 [22] was greater than 10 µM, the concentration at 2 h [23] was 0.76 µM and the bioavailability [24] was 20%. For the same compound, the IC50 [25] was 0.184 µM, the IC50 [26] was 0.157 µM and the solubility [27] was greater than 0.4 mg/mL. For the same compound, the solubility [28] was 0.557 mg/mL (≈ 1470 µM), the IC50 [29] was greater than 10 µM and the Papp at 2 h [30] was 40 nm/s.
